Laboratory results published in PMC6562672, “Dose-Dependent Sorafenib-Induced Immunosuppression Is Associated with Aberrant NFAT Activation and Expression of PD-1 in T Cells” (Cancers, 2019).
Like-named read-outs stand apart in the source and are kept apart here.

Legend:
[1] = cited from earlier work
NFAT1 = NFAT1 nuclear translocation in T cells by imaging flow cytometry (similarity score); format: cell-based, human; conditions: for nuclear translocation of NFAT1: non-stimulated CD8+ T cells
Procedure: PBMCs were allowed to ‘recover’ in AIM-V medium (Thermo Fisher Scientific) at 37 °C, 5% CO2 in a humidified atmosphere overnight. 2 × 10^6 cells were treated with 0–10 µM sorafenib for the durations specified in the results section. If the experimental conditions required T cell stimulation, samples were co-treated (stimulated) with 1 µg/mL anti-CD3 and 1 µg/mL anti-CD28 for 2 h. Following treatment, PBMCs were placed on ice to stop drug action and immunophenotyped for CD4, CD8, CD25, and PD-1 (CD279). NFAT1 was detected by indirect labeling. Antibodies were diluted in permeabilization wash buffer (PWB) consisting of 0.1% Triton-X-100 in FCM Buffer (1× phosphate buffered saline (PBS) + 0.5%BSA). The primary Rabbit polyclonal NFAT1 antibody was diluted 1:50 in PWB. Following this, 1:200 dilution of secondary AF647 conjugated F(ab’)2 fragment donkey anti rabbit IgG antibody (Jackson ImmunoResearch Laboratories Inc., West Grove, PA, USA) was added. Just prior to data acquisition on the ImageStream, DAPI was added to all samples (0.5 µg/mL final concentration), to stain the nucleus.
Imaging flow cytometry acquisition, compensation, and analysis was performed on an imaging flow cytometer (ImagestreamX Mk-II; Amnis, part of MilliporeSigma, Seattle, WA, USA) as described previously. Following compensation for spectral overlap, image analysis was performed with IDEAS® software (Amnis, Seattle, WA, USA). To assess nuclear NFAT1 translocation, the corresponding nuclear image and NFAT1 image of each cell was compared and a Similarity Score (SS) was assigned for individual cells using published methods (Figure S3).

HCC = assay: Efficacy against HCC in WHV-infected woodchucks (ultrasound); format: in vivo, woodchuck (Marmota monax); conditions: for median time from first detection of tumor to 2 cm HCC: placebo 55 days; for median time to tumor development: long-term, placebo 295 days, p = 0.35
Text: Male and female eastern woodchucks (Marmota monax) from two different institutes were used. WHV-infected woodchucks from Cornell University (15) were used for a long-term efficacy study, and six woodchucks in a short-term efficacy study were bred at Roswell Park Comprehensive Cancer Institute Center. Woodchucks were infected at 3–5 days of age with dilute serum from standard infectious pools derived from WHV carriers. Pups were inoculated with diluted, pooled serum from WHV^+ animals. The inoculum was prepared from pooled serum of WHV^+ animals that is diluted aseptically 1:10 in PBS. In a biological safety cabinet, each pup is manually restrained and 100 microliters of inoculum is injected subcutaneously in the intrascapular region. Chronic infection was verified at approximately 3, 6, and 9 months of age by WHV viral titer status. Once the pups are confirmed WHV positive, they were monitored by ultrasound (Philips HDI 5000, Amsterdam, The Netherlands) to confirm the presence of HCC.
In total, 21 animals bearing one or more liver tumors were included in this study for 2 separate experiments. While receiving sorafenib or placebo, animals were monitored with ultrasound every 2 weeks for tumor development greater than 5 mm in diameter. […] Tumor volume was calculated using this formula: volume = shortest axis^2 × longest axis × 0.52.
All WHV carrier woodchucks were randomly divided into three groups such as placebo, low dose (2.5 mg/kg/day), and high dose (5.0 mg/kg/day) groups (n = 5 animals/group) in a long-term efficacy study based on clinical and preclinical studies. Also, a compartmental pharmacokinetic (PK) model was used to select the two lowest doses that can achieve exposure sufficient to inhibit pharmacodynamic targets. Experimental woodchucks were treated with placebo, 2.5 mg/kg, or 5.0 mg/kg sorafenib once daily with a 5 days on and 2 days off schedule. Animals were dosed orally until tumor development. Another experiment was performed with the low (2.5 mg/kg/day) and high (5.0 mg/kg/day) dose groups (n = 3 animals/group) to see the efficacy of short-term (90 days treatment) usage of sorafenib. The primary endpoint of the in vivo study was disease free survival (DFS), and DFS was measured from the date of randomization until the date of any liver tumor detection. The secondary endpoint was tumor size over 2 cm, which was measured from the date of first tumor detection. All experimental protocols were approved by IACUC.

[2] = Treatment toxicity in WHV-infected woodchucks (general performance, CBC, biochemistry); format: in vivo, woodchuck (Marmota monax)
Procedure: General performance statuses of animals were evaluated such as moving activity, appetite, defecation, urination, and weight changes regularly. In addition, CBC and blood biochemistry were measured two times per month during the course of experiment by ProCyte Hematology and Catalyst Chemistry Analyzers (IDEXX, Hoofddorp, The Netherlands).

woodchuck T cells = assay: One-way mixed lymphocyte reaction (MLR), woodchuck T cells, CFSE; format: cell-based; conditions: woodchuck vs. human MLR, 0–10 µM, dose responsive, 96 h
Procedure: Flow cytometry acquisition and compensation was performed on a LSR Fortessa (BD Biosciences, San Jose, CA, USA). Analysis of listmode data was performed using Winlist 8.0 (Verity Software House, Inc., Topsham, ME, USA). Briefly, the viable responder lymphocytes were hierarchically gated for single, low side scatter, viable cells with absent CD45 labeling. The percentage of proliferating cells was determined based on CFSE dye dilution compared to the CFSE labeling intensity from the non-proliferating MLR negative control sample. The full list of antibodies and reagents used in assays is available in Table S1.
Mixed lymphocyte reactions were performed in human (human vs. human, Figure 1E) and woodchucks (woodchuck vs. human, Figure 1F). 10 mL peripheral blood from healthy donors and 3 mL woodchuck peripheral blood isolated. Stimulator cells (human cells for both assays) were irradiated at 40 Gy in a Mark I Cesium-137 irradiator for 20 min. Following irradiation, cells were stained for CD45-APC (BD Biosciences, San Jose, CA, USA). Responder cells (non-irradiated human or woodchuck cells) were labeled with CFSE (Thermo Fisher Scientific, Eugene, OR, USA). Target and responder cells were placed in a round bottom 96 well polypropylene plate at a 2:1 ratio in the presence of 0–10 µM sorafenib and incubated at 37 °C for 96 h. […]

SMILES: CNC(=O)c1cc(Oc2ccc(NC(=O)Nc3ccc(Cl)c(C(F)(F)F)c3)cc2)ccn1 [sorafenib, Sorafenib]
- plasma concentration of sorafenib in clinical trials ([1]; clinical trials): approximately 2 mg/L
- plasma concentration of sorafenib in clinical trials ([1]; conversion of 2 mg/L): 4 µM
- time to steady-state concentrations ([1]; patients, multiple oral dosing): 7 days
- nuclear translocation of NFAT1 (NFAT1; 10 µM, 1 h exposure): no significant increase
- nuclear translocation of NFAT1 (NFAT1; 10 µM, 4 h exposure): most significant increase
- effect on PMA/ionomycin-induced T cell stimulation (NFAT1) (NFAT1; 10 µM, PMA/ionomycin stimulation, lesser extent than CD3/CD28): inhibitory effect
- baseline activity of NFAT1 in T cells (NFAT1; 10 µM, absence of CD3/CD28 stimulation): significantly increased
- anti-CD3/CD28-induced NFAT1 activity (NFAT1; 10 µM, presence of CD3/CD28 stimulation): significantly inhibited
- NFAT1 activation in PD-1+ cells (NFAT1; high dose (10 µM), PD-1+ T cells): increased
- NFAT1 activation (NFAT1; lower doses of sorafenib, absence of exogenous stimulatory factors): not observed
- median time from first detection of tumor to 2 cm HCC (HCC; 2.5 mg/kg): 111 days
- median time from first detection of tumor to 2 cm HCC (HCC; 5 mg/kg): 42 days
- median time to tumor development (HCC; high dose 5.0 mg/kg/day): 351 days
- tumor growth delay (HCC; high dose vs placebo, p = 0.5): failed to show any tumor growth delay effect
- animals that developed HCC (HCC; long-term treatment, regardless of doses of sorafenib (15 woodchucks incl. placebo)): 100%
- tumor size when first detected by ultrasound (HCC; low dose 2.5 mg/kg/day compared to placebo and high dose groups): smaller
- median time to tumor development (HCC; low dose 2.5 mg/kg/day): 384 days
- tumor growth delay (HCC; low dose vs placebo and high dose, p = 0.024): significant tumor growth delay
- tumor growth delay with low dose compared to high dose (HCC; short-term usage, 90 days, n = 3/group): not achieved
- prevention of HCC and inhibition of WHV replication (HCC; sorafenib treatments compared to placebo): did not prevent HCC or inhibit WHV replication
- general performance change (moving activity, appetite, defecation, urination, weight changes) ([2]; 2.5 and 5.0 mg/kg/day oral, all treatment groups): not detected
- CBC and biochemistry analyses among the three groups ([2]; end of experiment, placebo vs 2.5 vs 5.0 mg/kg/day): no statistical difference
- MLR response (T cell proliferation) (woodchuck T cells): inhibition of the woodchuck MLR response
